{"source": "patent US20030068613A1", "about": "“Method for studying regeneration in biological material” (priority 2000, published 2003)", "test_system": "organotypic cortical co-cultures", "assay": "Correlated activity (regeneration of functional connections) in organotypic cortical co-cultures on micro-electrode arrays", "assay_type": "cell-based, Wistar rats", "details": "50 nM in culture medium from 0 DIV, re-administered with each medium change up to 14 DIV; after 14 days in vitro; n=18; untreated control ca. 60% (n=28)", "description": "Organotypic cortical co-cultures (350-425 μm thick from the neocortex) were prepared from three-day-old to seven-day-old Wistar rats of both sexes and were maintained in vitro using the roller tube technique; on this point see Gähwiler, Organotypic Monolayer Cultures of Nervous Tissue, J. NEUROSCIENCE METHODS, 1981, volume 4, pages 329-342. The co-cultures were allowed to grow for up to 35 days either on glass cover plates or on micro-electrode arrays in medium which contained 50% Eagle's basic medium, 25% Hanks-buffered saline solution, 25% horse serum, 33 mM D-glucose and 1 mM L-glutamine. The medium was replaced twice a week, and the co-culture explants were positioned relative to one another with varied orientations and varied distances (0 to 500 μm).\nThe explants cultured on micro-electrode arrays were recorded at different times for spontaneous electrical activity, at the earliest after 4 DIV (days in vitro) and at the latest 35 DIV in normal culture medium at a temperature of 35° C. Using a multi-channel recording system, the 60 micro-electrodes could be recorded simultaneously, as a result of which it was possible to test correlated activity in the co-cultures. […] The electrodes had impedances of 100 to 300 kΩ (at 1 kHz), a spacing of 500 μm and a diameter of 10 μ. The activity was recorded at 10 to 25 kHz per channel, stored, and analyzed offline in respect of latency. […]"}
{"compound": "C=CC[C@@H]1/C=C(\\C)C[C@H](C)C[C@H](OC)[C@H]2O[C@@](O)(C(=O)C(=O)N3CCCC[C@H]3C(=O)O[C@H](/C(C)=C/[C@@H]3CC[C@@H](O)[C@H](OC)C3)[C@H](C)[C@@H](O)CC1=O)[C@H](C)C[C@@H]2OC", "note": "[FK506]", "values": [{"measurement": "correlated activity (share of explants showing correlation)", "result": "~90", "unit": "%"}]}
